The numbers were not newly measured in PubChem BioAssay AID1259409 (Chemical Carcinogenesis Research Information System (CCRIS), 2018), which cites them from elsewhere.

In the series the test system is rodent chemically induced tumor inhibition, incidence and multiplicity. Put plainly: CCRIS tumor inhibitor studies. To be noted: Dose [Inhibitor]: 0, Route [Inhibitor]: GAVAGE, Species: MOUSE, Promoter: NONE USED.

Each structure is given as a SMILES string.

Consider `O=C(/C=C/C=C/c1ccc2c(c1)OCO2)N1CCCCC1`, for which the “tumour outcome (control, treated, inhibition, significance)” value reads like this: (Carcinogen: METHYLCHOLANTHRENE, 56-49-5, 5.5 MG IN 0.05 ML SUNFLOWER OIL 1/WK FOR 1 YR BEGINNING POST CARCINOGEN TREATMENT (STUDY DURATION: 24 MO), Strain/Sex: SWISS/FEMALE, Target Tissue: Type of Lesion: LUNG: PAPILLARY ADENOMA AND ADENOCARCINOMA, Dose [Carcinogen]: 0.01 MG ON D 1, 7, 14 AND 21 AFTER BIRTH) 7/11 (64%), 9/12 (75%), -17%, not calculated; (Carcinogen: METHYLCHOLANTHRENE, 56-49-5, 5.5 MG IN 0.05 ML SUNFLOWER OIL 1/WK FOR 1 YR BEGINNING POST CARCINOGEN TREATMENT (STUDY DURATION: 24 MO), Strain/Sex: SWISS/MALE, Target Tissue: Type of Lesion: LIVER: HEPATOCELLULAR ADENOMA AND CARCINOMA) 3/13 (23%), 4/13 (31%), -35%, not calculated; (Carcinogen: METHYLCHOLANTHRENE, 56-49-5, 5.5 MG IN 0.05 ML SUNFLOWER OIL 1/WK FOR 1 YR BEGINNING POST CARCINOGEN TREATMENT (STUDY DURATION: 24 MO), Strain/Sex: SWISS/MALE, Target Tissue: Type of Lesion: LUNG: PAPILLARY ADENOMA AND ADENOCARCINOMA, Dose [Carcinogen]: 0.01 MG ON D 1, 7, 14 AND 21 AFTER BIRTH) 10/13 (77%), 10/13 (77%), 0%, not significant; (Carcinogen: METHYLCHOLANTHRENE, 56-49-5, 5.5 MG IN 0.05 ML SUNFLOWER OIL 1/WK FOR 1 YR BEGINNING POST CARCINOGEN TREATMENT (STUDY DURATION: 24 MO), Strain/Sex: SWISS/MALE, Target Tissue: Type of Lesion: SKIN: SARCOMA AND CARCINOMA, Dose [Carcinogen]: 0.01 MG ON D 1, 7, 14 AND 21 AFTER BIRTH) 5/13 (38%), 2/13 (15%), 61%, not calculated; (Carcinogen: METHYLCHOLANTHRENE, 56-49-5, 5.5 MG IN 0.05 ML SUNFLOWER OIL 1/WK FOR 1 YR BEGINNING POST CARCINOGEN TREATMENT (STUDY DURATION: 24 MO), Strain/Sex: SWISS/MALE, Target Tissue: Type of Lesion: SPLEEN: LYMPHOMA, Dose [Carcinogen]: 0.01 MG ON D 1, 7, 14 AND 21 AFTER BIRTH) 2/13 (15%), 3/13 (23%), -53%, not calculated; (Carcinogen: SAFROLE, 94-59-7, 5.5 MG IN 0.05 ML SUNFLOWER OIL 1/WK FOR 1 YR BEGINNING POST CARCINOGEN TREATMENT (STUDY DURATION: 24 MO), Strain/Sex: SWISS/FEMALE, Target Tissue: Type of Lesion: LUNG: PAPILLARY ADENOCARCINOMA, Dose [Carcinogen]: 0.2 MG ON D 1 AND 7 AFTER BIRTH THEN 0.4 MG ON D 14 AND 21) 3/18 (17%), 2/19 (11%), 35%, not calculated. Also, the “tumour outcome (control, treated, inhibition, significance)” value is recorded as 2/18 (11%), 0/19 (0%), 100%, not calculated (Carcinogen: SAFROLE, 94-59-7, 5.5 MG IN 0.05 ML SUNFLOWER OIL 1/WK FOR 1 YR BEGINNING POST CARCINOGEN TREATMENT (STUDY DURATION: 24 MO), Strain/Sex: SWISS/FEMALE, Target Tissue: Type of Lesion: SKIN: SARCOMA, Dose [Carcinogen]: 0.2 MG ON D 1 AND 7 AFTER BIRTH THEN 0.4 MG ON D 14 AND 21); 7/24 (29%), 1/23 (4%), 86%, p<0.05 (Carcinogen: SAFROLE, 94-59-7, 5.5 MG IN 0.05 ML SUNFLOWER OIL 1/WK FOR 1 YR BEGINNING POST CARCINOGEN TREATMENT (STUDY DURATION: 24 MO), Strain/Sex: SWISS/MALE, Target Tissue: Type of Lesion: LIVER: HEPATOCELLULAR CARCINOMA, Dose [Carcinogen]: 0.2 MG ON D 1 AND 7 AFTER BIRTH THEN 0.4 MG ON D 14 AND 21); 5/24 (21%), 2/23 (9%), 57%, not calculated (Carcinogen: SAFROLE, 94-59-7, 5.5 MG IN 0.05 ML SUNFLOWER OIL 1/WK FOR 1 YR BEGINNING POST CARCINOGEN TREATMENT (STUDY DURATION: 24 MO), Strain/Sex: SWISS/MALE, Target Tissue: Type of Lesion: LUNG: PAPILLARY ADENOCARCINOMA, Dose [Carcinogen]: 0.2 MG ON D 1 AND 7 AFTER BIRTH THEN 0.4 MG ON D 14 AND 21); 2/24 (8%), 0/23 (0%), 100%, not calculated (Carcinogen: SAFROLE, 94-59-7, 5.5 MG IN 0.05 ML SUNFLOWER OIL 1/WK FOR 1 YR BEGINNING POST CARCINOGEN TREATMENT (STUDY DURATION: 24 MO), Strain/Sex: SWISS/MALE, Target Tissue: Type of Lesion: SKIN: SARCOMA, Dose [Carcinogen]: 0.2 MG ON D 1 AND 7 AFTER BIRTH THEN 0.4 MG ON D 14 AND 21); 6/24 (25%), 3/23 (13%), 48%, not calculated (Carcinogen: SAFROLE, 94-59-7, 5.5 MG IN 0.05 ML SUNFLOWER OIL 1/WK FOR 1 YR BEGINNING POST CARCINOGEN TREATMENT (STUDY DURATION: 24 MO), Strain/Sex: SWISS/MALE, Target Tissue: Type of Lesion: SPLEEN: LYMPHOMA, Dose [Carcinogen]: 0.2 MG ON D 1 AND 7 AFTER BIRTH THEN 0.4 MG ON D 14 AND 21); 9/18 (50%), 7/19 (37%), 26%, not calculated (Carcinogen: SAFROLE, 94-59-7, 5.5 MG IN 0.05 ML SUNFLOWER OIL 1/WK FOR 1 YR BEGINNING POST CARCINOMA TREATMENT (STUDY DURATION: 24 MO), Strain/Sex: SWISS/FEMALE, Target Tissue: Type of Lesion: SPLEEN: LYMPHOMA, Dose [Carcinogen]: 0.2 MG ON D 1 AND 7 AFTER BIRTH THEN 0.4 MG ON D 14 AND 21). For the same compound, the “tumour outcome (control, treated, inhibition, significance)” value (Carcinogen: TANNIC ACID, 1401-55-4, 5.5 MG IN 0.05 ML SUNFLOWER OIL 1/WK FOR 1 YR BEGINNING POST CARCINOGEN TREATMENT (STUDY DURATION: 24 MO), Strain/Sex: SWISS/FEMALE, Target Tissue: Type of Lesion: LUNG: PAPILLARY ADENOCARCINOMA, Dose [Carcinogen]: 25 MG/KG BW ON D 1, 7, 14 AND 21 AFTER BIRTH) was 2/8 (25%), 1/9 (11%), 56%, not calculated; the “tumour outcome (control, treated, inhibition, significance)” value (Carcinogen: TANNIC ACID, 1401-55-4, 5.5 MG IN 0.05 ML SUNFLOWER OIL 1/WK FOR 1 YR BEGINNING POST CARCINOGEN TREATMENT (STUDY DURATION: 24 MO), Strain/Sex: SWISS/FEMALE, Target Tissue: Type of Lesion: SPLEEN: LYMPHOMA, Dose [Carcinogen]: 25 MG/KG BW ON D 1, 7, 14 AND 21 AFTER BIRTH) is given as 4/8 (50%), 4/9 (44%), 12%, not calculated; the “tumour outcome (control, treated, inhibition, significance)” value (Carcinogen: TANNIC ACID, 1401-55-4, 5.5 MG IN 0.05 ML SUNFLOWER OIL 1/WK FOR 1 YR BEGINNING POST CARCINOGEN TREATMENT (STUDY DURATION: 24 MO), Strain/Sex: SWISS/MALE, Target Tissue: Type of Lesion: LUNG: PAPILLARY ADENOCARCINOMA, Dose [Carcinogen]: 25 MG/KG BW ON D 1, 7, 14 AND 21 AFTER BIRTH) is listed as 3/12 (25%), 2/12 (17%), 32%, not calculated; the “tumour outcome (control, treated, inhibition, significance)” value (Carcinogen: TANNIC ACID, 1401-55-4, 5.5 MG IN 0.05 ML SUNFLOWER OIL 1/WK FOR 1 YR BEGINNING POST CARCINOGEN TREATMENT (STUDY DURATION: 24 MO), Strain/Sex: SWISS/MALE, Target Tissue: Type of Lesion: SPLEEN: LYMPHOMA, Dose [Carcinogen]: 25 MG/KG BW ON D 1, 7, 14 AND 21 AFTER BIRTH) is 5/12 (42%), 3/12 (25%), 40%, not calculated.
